Experiments:
Format in all cases: cell-based
Conditions in all cases: after 10, 20, 40 and 60 minutes at all dilutions 1:100, 1:200, 1:400, 1:800
[1] = tested on: Candida albicans; assay: Antimicrobial screening by agar dilution, Candida albicans
Experimental: (§1) The antimicrobial properties of the 1-[4,5-bis(4-bromophenyl)-1-hexyl-1H-imidazol-2-yl]-2-naphthol was studied by the method of agar dilution. Test solutions of each compound was prepared in concentration of 1% using dimethylformamide as a solvent then they were diluted in physiological solution to obtain the final experimental dilutions 1:100, 1:200, 1:400, 1:800. The effect of these substances was compared with furacillin in a controlled study. The testing microbes used were gram positive bacteria Staphylococcus aureus, gram negative bacteria Pseudomonas aeruginosa and Escherichia coli and Candida albicans fungi were taken. The experiments used for this survey were meat-pentonlu agar (EPA) for cultivation of bacteria and Saburo environment for fungi. Each experiment used 1 ml of test solution on each plate 500 min. Add 2 drops of emulsified with microbes feel. All experimental samples were taken from the agar after 10, 20, 40, 60 minutes in the environment on the basis of Patrk planted. Bacteria were cultivated at a temperature of 37° C. for 1 day and the mushroom was kept in a thermostat for […] at a temperature of 28° C. Then results were checked.

[2] = tested on: Staphylococcus aureus; assay: Antimicrobial screening by agar dilution, St. Aereus
Experimental: as §1

[3] = tested on: Pseudomonas aeruginosa; assay: Antimicrobial screening by agar dilution, Ps. Aeroqonaza
Experimental: as §1

[4] = tested on: Escherichia coli; assay: Antimicrobial screening by agar dilution, E. Coli
Experimental: as §1

Measured: inhibition activity

CCCCCCn1c(-c2c(O)ccc3ccccc23)nc(-c2ccc(Br)cc2)c1-c1ccc(Br)cc1 [1-[4,5-bis(4-bromophenyl)-1-hexyl-1H-imidazol-2-yl]-2-naphthol]
highest inhibition activity: all assays above

— patent publication US11958811B1, “1-[4,5-bis(4-bromophenyl)-1-hexyl-1H-imidazol-2-yl]-2-naphthol as an antimicrobial compound” (KING FAISAL UNIVERSITY, priority 2023, dated 2024)
